Laboratory results from patent US5620892A, “Strain of Saccharomyces cerevisiae expressing the gene encoding potassium transporter minK” (priority 1993, dated 1997).

Columns and labels:
HminK [1] = target: T1, HminK (Homo sapiens, UniProt P15382, S38G); test: Inhibition of growth in agar, HminK strain; type: cell-based; parameters: key: + indicates compound produced a zone on inhibition; settings: cultures grown in inducing medium (2% galactose) embedded in agar; scored after 48-hour incubation at 30° C.
T1 construct: mRNA in Xenopus oocytes (A3)
Protocol: (§1) Cultures of strains containing the pGAL::HminK plasmid or the pGAL::TRK1 plasmid were grown in inducing media (2% galactose) at 30° C. with vigorous aeration. Inhibitors were added to cultures over a range of concentrations. Samples were removed at various intervals and the optical density at 600 nm was determined. Growth measurements were normalized to values obtained for growth in the absence of drug and are plotted as Relative Growth versus concentration (FIG. 6). Similar cultures grown in inducing medium were embedded in agar and assessed for growth in presence of the compounds listed in Table 1. Plates were scored after a 48-hour incubation at 30° C.; "+" denotes growth inhibition.

TRK1 [2] = target: T2, TRK1 (Saccharomyces cerevisiae, UniProt P12685); test: Challenge of the pGAL::TRK1-transformed double mutant on agar plates at 100 mM and 0.1 mM KCl; type: cell-based; settings: clofilium 100 μM; 100 mM and 0.1 mM potassium chloride
T2 sequence (P12685 1-1235): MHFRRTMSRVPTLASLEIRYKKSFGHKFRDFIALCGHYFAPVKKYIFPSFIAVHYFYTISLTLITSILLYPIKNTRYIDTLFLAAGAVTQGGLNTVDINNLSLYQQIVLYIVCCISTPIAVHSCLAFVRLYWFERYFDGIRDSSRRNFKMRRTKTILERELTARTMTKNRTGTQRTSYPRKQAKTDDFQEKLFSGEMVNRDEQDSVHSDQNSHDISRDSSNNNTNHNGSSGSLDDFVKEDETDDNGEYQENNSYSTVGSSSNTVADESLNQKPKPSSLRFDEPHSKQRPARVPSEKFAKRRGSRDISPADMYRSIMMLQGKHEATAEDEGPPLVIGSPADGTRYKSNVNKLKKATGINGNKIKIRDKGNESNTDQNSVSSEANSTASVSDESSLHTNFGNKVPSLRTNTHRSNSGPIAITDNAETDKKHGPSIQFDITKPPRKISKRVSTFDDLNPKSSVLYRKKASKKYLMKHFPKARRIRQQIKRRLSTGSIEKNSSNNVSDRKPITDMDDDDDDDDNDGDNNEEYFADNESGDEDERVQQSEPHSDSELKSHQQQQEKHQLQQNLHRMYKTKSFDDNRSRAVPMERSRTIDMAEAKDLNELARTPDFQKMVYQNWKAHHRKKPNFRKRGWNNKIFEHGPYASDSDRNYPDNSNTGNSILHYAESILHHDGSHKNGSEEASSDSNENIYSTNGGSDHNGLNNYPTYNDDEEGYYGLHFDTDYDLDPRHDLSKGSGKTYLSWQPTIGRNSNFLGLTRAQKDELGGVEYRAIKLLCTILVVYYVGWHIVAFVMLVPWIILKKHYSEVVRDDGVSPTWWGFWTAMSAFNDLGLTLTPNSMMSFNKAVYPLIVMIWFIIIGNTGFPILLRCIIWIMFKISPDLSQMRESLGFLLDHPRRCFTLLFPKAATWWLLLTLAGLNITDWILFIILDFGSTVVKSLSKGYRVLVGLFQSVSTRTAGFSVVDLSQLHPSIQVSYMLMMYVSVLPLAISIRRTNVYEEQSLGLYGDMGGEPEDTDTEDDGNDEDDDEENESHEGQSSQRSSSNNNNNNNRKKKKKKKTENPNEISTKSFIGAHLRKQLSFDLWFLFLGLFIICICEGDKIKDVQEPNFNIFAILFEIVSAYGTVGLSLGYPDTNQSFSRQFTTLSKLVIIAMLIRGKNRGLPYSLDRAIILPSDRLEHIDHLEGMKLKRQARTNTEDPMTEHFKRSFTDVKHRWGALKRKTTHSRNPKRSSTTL
Protocol: (§2) In another experiment, the double mutant was transformed with pGAL vector including either TRK1 or HminK as described above. The transformed strains were then separately challenged with clofilium (100 μM) and dofetilide […] at 100 mM and 0.1 mM of potassium chloride.
(§3) Cultures of K^+ transporter mutant strains containing either pYES2 vector, pGAL::TRK1 or pGAL::HminK plasmids were grown in inducing media (2% galactose) at 30° C. with vigorous aeration. A. Serial dilutions of each culture were spotted onto agar plates containing either 100 mM or 0.1 mM. KCl. B. Serial dilutions of strains containing pGAL::TRK1 or pGAL::HminK plasmids were spotted onto agar plates containing 100 μM clofilium or 1 μM dofetilide at both KCl concentrations. All plates were incubated at 30° C. and scored after 2 days.

IKr = settings: rapid, rectifying component of the delayed rectifier; literature; cited from earlier work
HminK [3] = target: T1, HminK; test: Challenge of the pGAL::HminK-transformed double mutant on agar plates at 100 mM and 0.1 mM KCl; type: cell-based; settings: clofilium 100 μM; 100 mM and 0.1 mM potassium chloride
Protocol: as §2, §3

IKs = settings: slow component of the delayed rectifier; literature; cited from earlier work
minK = settings: literature and personal communication; cited from earlier work
HminK [4] = target: T1, HminK; test: Potassium ion currents of HminK mRNA transcripts expressed in Xenopus oocytes; type: cell-based; settings: Xenopus oocytes expressing the HminK transcripts; clofilium 50 μM
Protocol: For further verification, mRNA transcripts were expressed in Xenopus oocytes. The expression products caused potassium ion currents that are blocked by clofilium (50 μM) and kinetically indistinguishable from HminK currents reported in the literature. […] Ben Efraim et al., Biochemistry 32: 2371-2377 (1993).

TRK1 [5] = target: T2, TRK1; test: Inhibition of growth in agar, TRK1 strain; type: cell-based; parameters: key: + indicates compound produced a zone on inhibition; settings: cultures grown in inducing medium (2% galactose) embedded in agar; scored after 48-hour incubation at 30° C.
Protocol: as §1

| SMILES | Inhibition in agar HminK strain (HminK [1]) | Block of potassium uptake in the TRK1 strain (TRK1 [2]) | Block of IKr (IKr) | Block of potassium uptake in the HminK strain (HminK [3]) | Block of IKs (IKs) | Blockage of minK expressed in Xenopus oocytes (minK) | Block of potassium ion currents (HminK [4]) | Inhibition in agar TRK1 strain (TRK1 [5]) |
| --- | --- | --- | --- | --- | --- | --- | --- | --- |
| CC[N+](CC)(CC)CC [TEA Cl] | + | – | – | – | – | – | – | – |
| CCCCCCC[N+](CC)(CC)CCCCc1ccc(Cl)cc1 [clofilium] | + | not in the TRK1 strain | blocked | blocked potassium uptake in the HminK strain | blocked | blockage | blocked | – |
| CC(C)NCC(O)c1ccc(NS(C)(=O)=O)cc1 (stereo not drawn) [d-sotalol] | – | – | blocked | – | not | – | – | – |
| CN(CCOc1ccc(NS(C)(=O)=O)cc1)CCc1ccc(NS(C)(=O)=O)cc1 [dofetilide] | – | – | blocked | – | not | – | – | – |
| C=C[C@H]1C[N@@]2CC[C@H]1C[C@@H]2[C@@H](O)c1ccnc2ccc(OC)cc12 [quinidine] | + | – | – | – | – | – | – | + |
